Data: the supplement of paper PMC10307832

Columns and labels:
Experiment in all cases: relative viability (nuclei count vs DMSO), 5 days (fraction); higher = more cells survive
[1] = compound: CC1=CC(=CC=C1)NC2=NC(=CS2)C3=CC=NC=C3 + CC1(C)CCC(c2ccc(Cl)cc2)=C(CN2CCN(c3ccc(C(=O)NS(=O)(=O)c4ccc(N[C@H](CCN5CCOCC5)CSc5ccccc5)c(S(=O)(=O)C(F)(F)F)c4)cc3)CC2)C1 [Navitoclax] (partner 0.5 µM)
How it was run: (§1)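 Relative viability is defined as nuclei in treated wells over nuclei in vehicle wells. Duplicate plates were run and medians reported. Lung cancer cell lines in 1536-well plates were dosed by pin tool one day after seeding, with one drug or with a fixed anchor-drug dose plus five library-drug doses (not always all listed) in √10 steps, and nuclei were counted after 5 days.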

[2] = compound: CC1=CC(=CC=C1)NC2=NC(=CS2)C3=CC=NC=C3 + CS(=O)(=O)CCNCc1ccc(-c2ccc3ncnc(Nc4ccc(OCc5cccc(F)c5)c(Cl)c4)c3c2)o1 [Lapatinib] (partner 2 µM)
How it was run: as §1

Masitinib + Luminespib = compound: Cc1ccc(NC(=O)c2ccc(CN3CCN(C)CC3)cc2)cc1Nc1nc(-c2cccnc2)cs1 [Masitinib] + CCNC(=O)c1noc(-c2cc(C(C)C)c(O)cc2O)c1-c1ccc(CN2CCOCC2)cc1 [Luminespib] (partner 0.01 µM)
How it was run: as §1

Masitinib + Dasatinib = compound: Cc1ccc(NC(=O)c2ccc(CN3CCN(C)CC3)cc2)cc1Nc1nc(-c2cccnc2)cs1 [Masitinib] + Cc1nc(Nc2ncc(C(=O)Nc3c(C)cccc3Cl)s2)cc(N2CCN(CCO)CC2)n1 [Dasatinib] (partner 0.075 µM)
How it was run: as §1

Cell Line | relative viability ([1]; first compound 0.08 µM) | relative viability ([1]; first compound 0.253 µM) | relative viability ([1]; first compound 0.8 µM) | relative viability ([1]; first compound 2.53 µM) | relative viability ([1]; first compound 8 µM) | relative viability ([2]; first compound 0.08 µM) | relative viability ([2]; first compound 0.253 µM) | relative viability ([2]; first compound 0.8 µM) | relative viability ([2]; first compound 2.53 µM) | relative viability ([2]; first compound 8 µM) | relative viability (Masitinib + Luminespib; first compound 0.01 µM) | relative viability (Masitinib + Luminespib; first compound 0.03162 µM) | relative viability (Masitinib + Luminespib; first compound 0.1 µM) | relative viability (Masitinib + Luminespib; first compound 0.3162 µM) | relative viability (Masitinib + Luminespib; first compound 1 µM) | relative viability (Masitinib + Dasatinib; first compound 0.01 µM) | relative viability (Masitinib + Dasatinib; first compound 0.03162 µM) | relative viability (Masitinib + Dasatinib; first compound 0.1 µM) | relative viability (Masitinib + Dasatinib; first compound 0.3162 µM) | relative viability (Masitinib + Dasatinib; first compound 1 µM)
EMC-BAC-2 | 1.06 | 1.22 | 1.1 | 1.15 | 0.963 | 0.78 | 0.85 | 0.839 | 0.829 | 0.848 | 1.01 | 1.06 | 1.15 | 1.13 | 1.16 | 0.35 | 0.33 | 0.397 | 0.314 | 0.296
NCI-H2009 | 1.05 | 1.12 | 1.11 | 1.18 | 1.02 | 0.768 | 0.857 | 0.978 | 0.89 | 0.588 | 0.969 | 0.938 | 1.03 | 1 | 1.06 | 0.291 | 0.284 | 0.324 | 0.283 | 0.244
NCI-H596 | 0.935 | 0.943 | 0.725 | 0.942 | 0.643 | 0.854 | 0.974 | 0.819 | 0.94 | 1.01 | 0.936 | 1.03 | 1.11 | 0.53 | 1.02 | 0.594 | 0.566 | 0.675 | 0.667 | 0.615
NCI-H1915 | 0.747 | 0.791 | 0.84 | 0.779 | 0.811 | 0.91 | 0.892 | 1.01 | 0.876 | 0.823 | – | 0.815 | – | 0.938 | 0.896 | – | 0.214 | – | 0.319 | 0.276
